US20010046986A1, “Method for controlling flies” (priority 2000, published 2001)

System: Musca domestica
Settings: female Musca domestica imagoes of a sensitive strain; oral, 1 μL of 50 ppm liquid composition in 5% granulated sugar solution (0.05 μg clothianidin); after 24 hours
Protocol: Insecticidal test by oral administration to Musca domestica
A clothianidin solution in alcohol was diluted with 5% granulated sugar solution to prepare a 50 ppm liquid composition of clothianidin.
Female Musca domestica imagoes (ten flies) of a sensitive strain kept without water for 3˜4 hours were anesthetized and lightly fixed to a pressure sensitive adhesive sheet which was cut into strips. After the test insects came out from the anesthetic, 1 μL of the liquid composition (containing 0.05 μg of clothianidin) was released from an injection needle attached to a micro dropper so that the test insects inhaled the composition.

SMILES: CN/C(=N\[N+](=O)[O-])NCc1cnc(Cl)s1 [clothianidin, (E)-1-(2-chloro-1,3-thiazol-5-ylmethyl)-3-methyl-2-nitroguanidine]
- insecticidal effect (flies dead): all flies were dead
